# Source: the supplement of paper PMC10307832
# Tests used:
# Test in all cases: relative viability (nuclei count vs DMSO), 5 days (fraction); higher = more cells survive
# Avagacestat + Vorinostat = compound: NC(=O)[C@@H](CCC(F)(F)F)N(Cc1ccc(-c2ncon2)cc1F)S(=O)(=O)c1ccc(Cl)cc1 [Avagacestat] + O=C(CCCCCCC(=O)Nc1ccccc1)NO [Vorinostat] (partner 1 µM)
# How it was run: (§1)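 Five library-drug doses in √10 steps were combined with a fixed anchor-drug dose, or a single drug was given alone, by pin tool to lung cancer cell lines in 1536-well plates the day after seeding. Nuclei were stained and counted after 5 days. Relative viability is the nuclei count in treated wells over that in vehicle wells, taken as the median of duplicate plates.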
# Avagacestat + Dasatinib = compound: NC(=O)[C@@H](CCC(F)(F)F)N(Cc1ccc(-c2ncon2)cc1F)S(=O)(=O)c1ccc(Cl)cc1 [Avagacestat] + Cc1nc(Nc2ncc(C(=O)Nc3c(C)cccc3Cl)s2)cc(N2CCN(CCO)CC2)n1 [Dasatinib] (partner 0.075 µM)
# How it was run: as §1
# Avagacestat + Pictilisib = compound: NC(=O)[C@@H](CCC(F)(F)F)N(Cc1ccc(-c2ncon2)cc1F)S(=O)(=O)c1ccc(Cl)cc1 [Avagacestat] + CS(=O)(=O)N1CCN(Cc2cc3nc(-c4cccc5[nH]ncc45)nc(N4CCOCC4)c3s2)CC1 [Pictilisib] (partner 1 µM)
# How it was run: as §1
# Avagacestat + Crizotinib = compound: NC(=O)[C@@H](CCC(F)(F)F)N(Cc1ccc(-c2ncon2)cc1F)S(=O)(=O)c1ccc(Cl)cc1 [Avagacestat] + C[C@@H](Oc1cc(-c2cnn(C3CCNCC3)c2)cnc1N)c1c(Cl)ccc(F)c1Cl [Crizotinib] (partner 1 µM)
# How it was run: as §1
Cell Line,relative viability (Avagacestat + Vorinostat; first compound 0.08 µM),relative viability (Avagacestat + Vorinostat; first compound 0.253 µM),relative viability (Avagacestat + Vorinostat; first compound 0.8 µM),relative viability (Avagacestat + Vorinostat; first compound 2.53 µM),relative viability (Avagacestat + Vorinostat; first compound 8 µM),relative viability (Avagacestat + Dasatinib; first compound 0.08 µM),relative viability (Avagacestat + Dasatinib; first compound 0.253 µM),relative viability (Avagacestat + Dasatinib; first compound 0.8 µM),relative viability (Avagacestat + Dasatinib; first compound 2.53 µM),relative viability (Avagacestat + Dasatinib; first compound 8 µM),relative viability (Avagacestat + Pictilisib; first compound 0.08 µM),relative viability (Avagacestat + Pictilisib; first compound 0.253 µM),relative viability (Avagacestat + Pictilisib; first compound 0.8 µM),relative viability (Avagacestat + Pictilisib; first compound 2.53 µM),relative viability (Avagacestat + Pictilisib; first compound 8 µM),relative viability (Avagacestat + Crizotinib; first compound 0.08 µM),relative viability (Avagacestat + Crizotinib; first compound 0.253 µM),relative viability (Avagacestat + Crizotinib; first compound 0.8 µM),relative viability (Avagacestat + Crizotinib; first compound 2.53 µM),relative viability (Avagacestat + Crizotinib; first compound 8 µM)
NCI-H1651,0.583,0.566,0.681,0.52,0.567,0.477,0.426,0.454,0.38,0.342,0.566,0.576,0.711,0.585,0.368,1,0.928,0.896,0.879,0.863
NCI-H1666,1.17,1.23,1.28,1.12,1.09,0.819,0.739,0.876,0.783,0.653,0.416,0.445,0.499,0.48,0.49,1.3,1.09,1.23,1.03,0.957
NCI-H1734,0.876,0.901,0.829,0.761,0.824,0.545,0.542,0.48,0.471,0.432,0.538,0.483,0.462,0.419,0.418,0.969,0.755,0.705,0.733,0.575
NCI-H1755,0.884,0.782,0.891,0.666,0.791,0.445,0.357,0.234,0.389,0.334,0.487,0.445,0.445,0.428,0.367,1.04,1.01,0.928,0.865,0.832
NCI-H1915,0.56,0.633,0.522,0.477,0.479,0.305,0.308,0.279,0.313,0.341,0.962,1.05,0.949,1,0.93,0.924,1.15,0.964,0.912,0.889
NCI-H1944,0.716,0.635,0.497,0.554,0.54,0.199,0.201,0.227,0.202,0.222,0.349,0.374,0.357,0.32,0.33,1.09,1.2,0.958,0.915,0.919
NCI-H1975,0.823,0.866,0.765,0.694,0.628,0.395,0.478,0.386,0.402,0.384,0.338,0.289,0.325,0.258,0.298,0.989,1.1,1.1,0.926,0.905
NCI-H1993,0.797,0.771,0.74,0.7,0.631,0.53,0.549,0.586,0.491,0.538,0.675,0.664,0.856,0.817,0.696,0.925,0.777,1.03,0.907,0.879
NCI-H2009,0.704,0.876,0.733,0.722,0.694,0.323,0.274,0.282,0.257,0.229,0.986,0.946,0.983,0.808,0.778,1.04,1.14,1.01,1.04,0.975
NCI-H2023,0.625,0.554,0.617,0.471,0.6,0.564,0.643,0.563,0.419,0.422,0.249,0.225,0.255,0.184,0.185,0.751,0.78,0.583,0.577,0.602
NCI-H2085,0.815,0.855,0.807,0.758,0.882,0.201,0.202,0.229,0.222,0.252,0.543,0.461,0.518,0.501,0.46,0.928,0.975,1,1.04,0.811
NCI-H2087,1.14,0.914,1.07,0.771,0.68,0.893,1.18,0.994,0.916,0.686,0.905,1.04,1.27,0.896,0.955,1.18,1.01,0.906,1.07,0.843
NCI-H2126,0.792,0.715,0.842,0.711,0.753,0.588,0.587,0.606,0.467,0.582,0.521,0.461,0.487,0.477,0.463,1.07,1.14,0.977,1.04,1.04
NCI-H2170,1.35,0.995,0.821,0.876,0.617,0.622,0.535,0.647,0.48,0.52,0.329,0.309,0.295,0.278,0.326,1.27,1.59,1.2,1.38,0.976
NCI-H2228,0.752,0.787,0.569,0.641,0.511,0.546,0.426,0.435,0.408,0.474,0.431,0.498,0.556,0.346,0.349,0.472,0.487,0.427,0.465,0.423
NCI-H2347,0.599,0.646,0.78,0.499,0.522,0.292,0.292,0.369,0.297,0.331,0.467,0.688,0.849,0.387,0.624,0.693,0.74,0.692,0.511,0.66
